Test results published in patent US20160166631A1, “NUTRACEUTICAL COMBINATION FOR PREVENTION AND TREATMENT OF TYPE 2 DIABETES” (priority 2014, published 2016).

Tested on: Type 2 diabetes patients
Test: Clinical trials: DiabetainC co-administered with Metformin or other anti-diabetes medications (Hb A1c, fasting blood glucose)
Type: in vivo, human
Description: Clinical trials have shown that “DiabetainC” supplements in accordance with this disclosure, when administered to Type 2 diabetes patients, lowers Hb A1c by an average of 1.7% when co-administered with Metformin, as compared with a 1.2% lowering of Hb A1c when Metformin is used by itself. This is a significant improvement. A 0.5% to 1% lowering of Hb A1c correlates with a 20% reduction in morbidity.
Clinical trials have shown an advantageous decrease in fasting blood glucose (FBG) of 72 mg/dL when co-administered with Metformin, as compared with a lowering of 48 mg/dL when Metformin is administered alone. […] These improvements are significant, as every 15 mg/dL to 40 mg/dL decrease in FBG reduces diabetes related heart diseases up to 50%.

CN(C)C(=N)N=C(N)N [Metformin]
lowering of fasting blood glucose (FBG) (Metformin administered alone): 48 mg/dL
lowering of Hb A1c (Type 2 diabetes patients, Metformin used by itself): 1.2%
